Experimental data reported in PMC7930564, “First Case of Glyphosate Resistance in Bromus catharticus Vahl.: Examination of Endowing Resistance Mechanisms” (Frontiers in Plant Science, 2021).

Tested on: T1, EPSPS (5-enolpyruvylshikimate-3-phosphate synthase), glyphosate-resistant (R) population
T1 construct: native enzyme in leaf extract (total soluble protein) of R plants, not recombinant; no target-site substitution at codons 101, 102, 103, 106, 144, 192; homoeologous copies not resolved
Experiment: phosphate release, EnzChek Phosphate Assay Kit, […] nm, leaf extract
Type: biochemical, Bromus catharticus
Details: substrates phosphoenolpyruvate and shikimate-3-phosphate; glyphosate 0 to 5,000 μM; Figure 6 legend fit prints 0.16; read-out: I50

O=C(O)CNCP(=O)(O)O [glyphosate, N-phosphonomethyl glycine]
IC50: 150 nM
